{"source": "patent US8602215B2", "about": "“Methods for reducing the risk of an adverse dronedarone/beta-blockers interaction in a patient suffering from atrial fibrillation” (Sanofi, priority 2010, dated 2013)", "key": {"[1]": {"details": "human, in vivo"}, "[2]": {"system": "patients with atrial fibrillation or atrial flutter", "test": "ATHENA clinical study, patients with beta-blockers baseline medication", "format": "in vivo", "procedure": "The relative risk (RR) was estimated using Cox's […] regression model.\nThe relative risk (RR) is the ratio of the rates of occurrence of a hospitalization or of a death among the patients on dronedarone, relative to the patients on placebo.\nThe percentage reduction x of a given event (hospitalization, death, cardiovascular death, etc.) is calculated in the following way: x=1−relative risk. Results Relating to the Prevention of Cardiovascular Hospitalization or Death"}, "[3]": {"system": "healthy male subjects", "test": "Propranolol/dronedarone interaction study: pharmacodynamics, electrocardiogram and vital signs at rest and during sub-maximal exercise (Example 2)", "format": "in vivo, human (healthy male subjects)", "procedure": "(§1) All treatments were administered in fed conditions.\nPharmacodynamics: Resting vital signs were summarized by the synthetic parameter AUC0-8 and analyzed for “treatment effects and chronological (“time”) effects using repeated measures analysis of variance. Exercise vital signs were analyzed in a similar manner; the electrocardiogram exercise data were not formally analyzed and presented using descriptive statistics."}, "[4]": {"target": "T1, CYP2D6 (Homo sapiens, UniProt P10635)", "T1 construct": "endogenous in cells; host or cells: healthy human volunteers in vivo (endogenous enzyme, CYP2D6 extensive metabolizers)", "T1 sequence (P10635 whole entry)": "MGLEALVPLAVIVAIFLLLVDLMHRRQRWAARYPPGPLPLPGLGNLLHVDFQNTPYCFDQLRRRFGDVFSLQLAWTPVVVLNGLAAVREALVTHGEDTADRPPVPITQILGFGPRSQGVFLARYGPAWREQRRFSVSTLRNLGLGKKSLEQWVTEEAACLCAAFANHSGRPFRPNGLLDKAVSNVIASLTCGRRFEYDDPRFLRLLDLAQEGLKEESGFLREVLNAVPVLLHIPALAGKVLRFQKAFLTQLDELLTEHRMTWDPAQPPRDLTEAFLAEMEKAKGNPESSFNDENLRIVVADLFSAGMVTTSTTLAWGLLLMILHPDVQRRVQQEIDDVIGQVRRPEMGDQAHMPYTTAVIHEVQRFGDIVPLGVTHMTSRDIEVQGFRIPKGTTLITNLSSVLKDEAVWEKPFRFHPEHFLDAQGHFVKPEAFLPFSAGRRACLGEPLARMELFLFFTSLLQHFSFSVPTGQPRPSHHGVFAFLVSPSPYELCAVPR", "test": "CYP2D6 inhibition in vivo, from metoprolol interaction (Example 1)", "set-up": "species or system human (CYP2D6 extensive metabolizer subjects)", "details": "dronedarone 400 mg BID, metoprolol 200 mg OD as substrate", "procedure": "as §1\nThe interaction ratio is lower than the existing 3-(Cmax) to 6-fold (AUC) difference in metoprolol exposure between poor and extensive CYP2D6 metabolizers."}, "[5]": {"test": "clinical", "details": "male, human, in vivo"}, "[6]": {"test": "Metoprolol/dronedarone interaction study: plasma pharmacokinetics of metoprolol (Example 1)", "details": "dronedarone 400 mg BID + metoprolol 200 mg OD; CYP2D6 extensive metabolizer subjects"}, "[7]": {"system": "healthy male caucasian subjects", "test": "Metoprolol/dronedarone interaction study: pharmacodynamics, myocardial contractility (Example 1)", "format": "in vivo, human (healthy male caucasian subjects)", "details": "dronedarone 800 mg BID added on top of metoprolol 200 mg OD; p=0.0002", "procedure": "as §1\nThe pharmacodynamic analyses were based on the change in Day 5 and Day 13 measurements, using a one-way analysis of variance (ANOVA) model with term for dose, for both primary and secondary endpoints; estimates and 95% confidence intervals (CI) of the difference in mean CHGDay13-5 between dronedarone dose groups and the placebo group were derived within the ANOVA framework. As the sample size calculation was based on the comparison of the highest dronedarone dose versus placebo, pairwise comparison were performed without adjustment of the overall treatment first type error rate. Safety evaluation was based upon a review of individual values and descriptive statistics (listings, summary tables, graphics)."}, "[8]": {"details": "human, in vivo", "remark": "listed apart in the source"}, "[9]": {"details": "existing difference, quoted for comparison; cited from earlier work"}, "[10]": {"details": "1628 patients with beta-blockers baseline medication, placebo 673 of 1641"}, "[11]": {"details": "versus placebo, Cox model, beta-blockers baseline medication"}, "[12]": {"details": "versus placebo, beta-blockers baseline medication"}}, "note": "Structures can show the parent of a compound that is named as a salt. Where two headings read alike, the source gives them in different places.", "data": [{"smiles": "CCCCNCCCOc1ccc(C(=O)c2c(CCCC)oc3ccc(NS(C)(=O)=O)cc23)cc1", "note": "[SR35021]", "values": [{"measurement": "AUC0-24", "setting": "[1]", "value": "768.6 (278.4) ng · h/ml"}, {"measurement": "Cmax", "setting": "[1]", "value": "85.9 (28.8) ng/ml"}, {"measurement": "tmax", "setting": "[1]", "value": "5.13 (0.72) h"}]}, {"smiles": "CCCCc1oc2ccc(NS(C)(=O)=O)cc2c1C(=O)c1ccc(OCCCN(CCCC)CCCC)cc1", "note": "[dronedarone hydrochloride]", "values": [{"measurement": "death due to stroke, events reported", "setting": "[2]; 1628 patients with beta-blockers baseline medication, placebo 11 of 1641", "value": 10, "unit": "events"}, {"measurement": "sudden cardiac death, events reported", "setting": "[2]; 1628 patients with beta-blockers baseline medication, placebo 25 of 1641", "value": 9, "unit": "events"}, {"measurement": "hospitalization for congestive heart failure (CHF), events reported", "setting": "[2]; 1628 patients with beta-blockers baseline medication, placebo 96 of 1641", "value": 85, "unit": "events"}, {"measurement": "cardiovascular hospitalization or death, events reported", "setting": "[2]; [10]", "value": 553, "unit": "events"}, {"measurement": "death, events reported", "setting": "[2]; [10]", "value": 553, "unit": "events"}, {"measurement": "relative risk of cardiovascular hospitalization or death", "setting": "[2]; [11]", "value": 0.777}, {"measurement": "relative risk of death", "setting": "[2]; [11]", "value": 0.777}, {"measurement": "relative risk of death due to stroke", "setting": "[2]; [11]", "value": 0.909}, {"measurement": "relative risk of hospitalization for CHF", "setting": "[2]; [11]", "value": 0.888}, {"measurement": "relative risk of sudden cardiac death", "setting": "[2]; [11]", "value": 0.362}, {"measurement": "decrease of CHF", "setting": "[2]; [12]", "value": 12, "unit": "%"}, {"measurement": "decrease of cardiovascular hospitalization or death", "setting": "[2]; [12]", "value": 23, "unit": "%"}, {"measurement": "decrease of death", "setting": "[2]; [12]", "value": 23, "unit": "%"}, {"measurement": "decrease of death due to stroke", "setting": "[2]; [12]", "value": 10, "unit": "%"}, {"measurement": "decrease of sudden cardiac death", "setting": "[2]; [12]", "value": 64, "unit": "%"}]}, {"smiles": "CCCCc1oc2ccc(NS(C)(=O)=O)cc2c1C(=O)c1ccc(OCCCN(CCCC)CCCC)cc1", "note": "[dronedarone, 2-n-Butyl-3-[4-(3-di-n-butylaminopropoxy)benzoyl]-5-methylsulphonamidobenzofuran]", "values": [{"measurement": "Resting diastolic blood pressure, change", "setting": "[3]; single dose", "value": "−3", "unit": "%"}, {"measurement": "Resting heart rate, change", "setting": "[3]; single dose", "value": 2, "unit": "%"}, {"measurement": "Resting systolic blood pressure, change", "setting": "[3]; single dose", "value": "−5", "unit": "%"}, {"measurement": "diastolic blood pressure during sub-maximal exercise, change from baseline", "setting": "[3]; single dose", "value": "−2", "unit": "%"}, {"measurement": "heart rate during sub-maximal exercise, change from baseline", "setting": "[3]; single dose", "value": "−3", "unit": "%"}, {"measurement": "systolic blood pressure during sub-maximal exercise, change from baseline", "setting": "[3]; single dose", "value": "−2", "unit": "%"}, {"measurement": "PQ interval, change from baseline", "setting": "[3]; single oral administration", "value": "increase"}, {"measurement": "T-wave amplitude, change from baseline", "setting": "[3]; single oral administration", "value": "increase"}, {"measurement": "inhibition of CYP2D6 in vivo", "setting": "[4]", "value": "weak inhibitor"}, {"measurement": "AUC(0-t)", "setting": "[5]; AUC0-24", "value": 983, "unit": "ng·h/mL"}, {"measurement": "Cmax", "setting": "[5]; Cmax", "value": 140, "unit": "ng/mL"}, {"measurement": "tmax", "setting": "[5]; tmax", "value": 3.63, "unit": "h"}, {"measurement": "effect on alpha hydroxymetoprolol exposures", "setting": "[6]", "value": "without significant effect"}, {"measurement": "reduction in Vcfmean (myocardial contractility)", "setting": "[7]", "value": -0.28, "unit": "s⁻¹"}, {"measurement": "increase of steady-state propranolol (80 mg OD) exposure", "setting": "[1]; male, 7 days", "value": "1.2-1.3 fold"}, {"measurement": "risk of bradycardia", "setting": "[2]; patients using both dronedarone and beta-blockers except sotalol", "value": "no clinically significant increase"}]}, {"smiles": "COCCc1ccc(OCC(O)CNC(C)C)cc1", "note": "(stereo not shown) [metoprolol]", "values": [{"measurement": "metoprolol Cmax and AUC0-24h after 8 days of treatment", "setting": "[8]", "value": "significantly higher"}, {"measurement": "AUC0-24", "setting": "[8]; male", "value": "1541 (1563) ng · h/mL"}, {"measurement": "AUC0-24 ratio estimate (day 13/day 5) and 90% CI", "setting": "[8]; male", "value": "1.29 [1.08-1.55]"}, {"measurement": "Cmax", "setting": "[8]; male", "value": "100.6 (86.4) ng/mL"}, {"measurement": "Cmax ratio estimate (day 13/day 5) and 90% CI", "setting": "[8]; male", "value": "1.34 [1.08-1.66]"}, {"measurement": "increase in AUC0-24", "setting": "[8]; male", "value": 1.6, "unit": "fold"}, {"measurement": "increase in Cmax", "setting": "[8]; male", "value": 1.8, "unit": "fold"}, {"measurement": "tmax", "setting": "[8]; male", "value": 4.0, "unit": "h"}, {"measurement": "difference in metoprolol exposure (AUC) between poor and extensive CYP2D6 metabolizers", "setting": "[9]", "value": 6, "unit": "fold"}, {"measurement": "difference in metoprolol exposure (Cmax) between poor and extensive CYP2D6 metabolizers", "setting": "[9]", "value": 3, "unit": "fold"}]}, {"smiles": "CC(C)NCC(O)COc1cccc2ccccc12", "note": "(stereo not shown) [propranolol]", "values": [{"measurement": "magnitude of the PR prolongation", "setting": "[3]; after repeated administration, p<0.001", "value": 3.9, "unit": "%"}, {"measurement": "magnitude of the T-wave increase", "setting": "[3]; after repeated administration, p=0.001", "value": 28.3, "unit": "%"}, {"measurement": "reduction of HR", "setting": "[3]; at steady state", "value": "−8.9", "unit": "%"}, {"measurement": "mean change from baseline in QT", "setting": "[3]; based on AUC0-8 h, at steady state", "value": 3.6, "unit": "%"}, {"measurement": "mean change from baseline in QTc", "setting": "[3]; based on AUC0-8 h, at steady state, p<0.001", "value": "−1.9", "unit": "%"}, {"measurement": "QT interval, change from baseline (resting electrocardiogram)", "setting": "[3]; repeated daily dosing", "value": 4, "unit": "%"}, {"measurement": "QTc interval, change from baseline (resting electrocardiogram)", "setting": "[3]; repeated daily dosing", "value": "−2", "unit": "%"}, {"measurement": "T-wave amplitude, change from baseline (resting electrocardiogram)", "setting": "[3]; repeated daily dosing", "value": 28, "unit": "%"}, {"measurement": "PQ interval, change from baseline (resting electrocardiogram)", "setting": "[3]; repeated once daily dosing", "value": 4, "unit": "%"}, {"measurement": "Resting electrocardiogram heart rate, change compared to baseline", "setting": "[3]; repeated once daily dosing", "value": "−9", "unit": "%"}, {"measurement": "Resting diastolic blood pressure, change", "setting": "[3]; repeated oral administration", "value": "−10", "unit": "%"}, {"measurement": "Resting heart rate, change", "setting": "[3]; repeated oral administration", "value": "−8", "unit": "%"}, {"measurement": "Resting systolic blood pressure, change", "setting": "[3]; repeated oral administration", "value": "−5", "unit": "%"}, {"measurement": "diastolic blood pressure during sub-maximal exercise, change from baseline", "setting": "[3]; repeated oral administration", "value": "−2", "unit": "%"}, {"measurement": "heart rate during sub-maximal exercise, change from baseline", "setting": "[3]; repeated oral administration", "value": "−16", "unit": "%"}, {"measurement": "systolic blood pressure during sub-maximal exercise, change from baseline", "setting": "[3]; repeated oral administration", "value": "−12", "unit": "%"}, {"measurement": "Resting diastolic blood pressure, change", "setting": "[3]; single dose", "value": "−4", "unit": "%"}, {"measurement": "Resting heart rate, change", "setting": "[3]; single dose", "value": "−10", "unit": "%"}, {"measurement": "Resting systolic blood pressure, change", "setting": "[3]; single dose", "value": "−3", "unit": "%"}, {"measurement": "diastolic blood pressure during sub-maximal exercise, change from baseline", "setting": "[3]; single dose", "value": 2, "unit": "%"}, {"measurement": "heart rate during sub-maximal exercise, change from baseline", "setting": "[3]; single dose", "value": "−17", "unit": "%"}, {"measurement": "systolic blood pressure during sub-maximal exercise, change from baseline", "setting": "[3]; single dose", "value": "−13", "unit": "%"}, {"measurement": "AUC0-12", "setting": "[1]", "value": "318.75 (178.62) ng · h/ml"}, {"measurement": "AUClast", "setting": "[1]", "value": "360.85 (210.30) ng · h/ml"}, {"measurement": "Cmax", "setting": "[1]", "value": "59.79 (33.77) ng/ml"}, {"measurement": "tmax", "setting": "[1]", "value": "2.19 (0.66) h"}]}]}
